Experimental data as given in patent US8263620B2, “Oxadiazole derivatives active on sphingosine-1-phosphate (SIP)” (Glaxo Group Limited, priority 2007, dated 2012).
Counter-ions that a name gives are not always drawn.

How the values were obtained:
human S1P3 receptor = molecular target: T1, human S1P3 receptor (Homo sapiens, UniProt Q99500); experiment: S1P3 GTPγS assay; assay type: biochemical; details: [35S]-GTPγS SPA, S1P3 RBL-2H3 membranes, agonist
T1 construct: expressed in transfected cells; membranes
Method: For membrane preparations all steps were performed at 4° C. Rat hepatoma cells stably expressing the human S1P1 receptor or Rat Basophilic Leukaemia cells (RBL) stably expressing human S1P3 receptor were grown to 80% confluency before being harvested into 10 ml Phospho-Buffered Saline (PBS) and centrifuged at 1200 rpm for 5 minutes. After removal of the supernatant, the pellet was re-suspended and cells were homogenised within a glass Waring blender for 2 bursts of 15 secs in 200 mls of buffer (50 mM HEPES, 1 mM leupeptin, 25 μg/ml bacitracin, 1 mM EDTA, 1 mM PMSF, 2 μM pepstatin A). The blender was plunged into ice for 5 mins after the first burst and 10-40 mins after the final burst to allow foam to dissipate. The material was then spun at 500 g for 20 mins and the supernatant spun for 36 mins at 48,000 g. The pellet was resuspended in the same buffer as above but without PMSF and pepstatin A. The material was then forced through a 0.6 mm needle, made up to the required volume, (usually ×4 the volume of the original cell pellet), aliquoted and stored frozen at −80° C.
After 30 minutes pre-coupling on ice the bead and membrane suspension was dispensed into a white Greiner polypropylene LV384-well plate (5 μl/well), containing 0.1 μl of the compound. 5 μl/well [^35S]-GTPγS (0.5 nM final radioligand conc) made up in assay buffer was then added to agonist plates. The final assay cocktail (10.1 μl) was centrifuged at 1000 rpm for 5 minutes then read immediately on a Viewlux reader.
All test compounds were dissolved in DMSO at a concentration of 10 mM and were prepared in 100% DMSO using a 1 in 4 dilution step to provide 11 point dose response curves. The dilutions were transferred to the assay plates ensuring that the DMSO concentration was constant across the plate for all assays.
All data was normalized to the mean of 16 high and 16 low control wells on each plate. A four parameter curve fit was then applied.
S1P3 expressing RBL membranes (1.5 μg/well) were homogenised by passing through a 23 G needle. […] GDP 10 μM FAC and saponin 90 μg/ml FAC were also added
After 30 minutes precoupling on ice, the bead and membrane suspension was dispensed into white Greiner polypropylene LV 384-well plates (5 μl/well), containing 0.1 μl of compound. 5 μl/well [^35S]-GTPγS (0.5 nM for S1P1 or 0.3 nM for S1P3 final radioligand concentration) made in assay buffer was then added to the plates. The final assay cocktail (10.1 μl) was then sealed, spun on a centrifuge, then read immediately on a Viewlux instrument.

[1] = clinical studies, first 24 hours of treatment; cited from earlier work
circulating lymphocytes = details: animals and man; cited from earlier work

T1 sequence (Q99500 whole entry): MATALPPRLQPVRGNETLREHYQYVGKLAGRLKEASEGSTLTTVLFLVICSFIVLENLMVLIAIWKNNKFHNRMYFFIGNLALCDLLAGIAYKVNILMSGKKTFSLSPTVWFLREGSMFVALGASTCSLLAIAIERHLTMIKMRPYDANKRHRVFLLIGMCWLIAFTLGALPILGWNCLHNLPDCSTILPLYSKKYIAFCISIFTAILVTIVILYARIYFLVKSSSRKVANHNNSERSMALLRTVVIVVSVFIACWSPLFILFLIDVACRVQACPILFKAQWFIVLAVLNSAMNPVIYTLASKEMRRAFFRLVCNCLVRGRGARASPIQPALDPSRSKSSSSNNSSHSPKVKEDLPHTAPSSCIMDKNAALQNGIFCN

SMILES | EC50 (human S1P3 receptor) [µM] | bradycardia [1] | effect on circulating lymphocytes (circulating lymphocytes)
Cc1c(-c2noc(-c3ccc(OC(C)C)c(C#N)c3)n2)ccc2c1CCNC2CCCC(=O)O (stereo not drawn) [Example 6, 4-[6-(5-{3-Cyano-4-[(1-methylethyl)oxy]phenyl}-1,2,4-oxadiazol-3-yl)-5-methyl-1,2,3,4-tetrahydro-1-isoquinolinyl]butanoic acid trifluoroacetate] | > 10 |  | 
CCCCCCCCc1ccc(CCC(N)(CO)CO)cc1 [FTY720] |  | results in bradycardia in the first 24 hours of treatment | reduce circulating lymphocytes
Cc1c(-c2noc(-c3ccc(OC(C)C)c(Cl)c3)n2)ccc2c1CCNC2CC(=O)O (stereo not drawn) [Example 3, [6-(5-{3-Chloro-4-[(1-methylethyl)oxy]phenyl}-1,2,4-oxadiazol-3-yl)-5-methyl-1,2,3,4-tetrahydro-1-isoquinolinyl]acetic acid trifluoroacetate] | > 10 |  | 

Second part, led by results:

EC50 (human S1P3 receptor) [µM] | SMILES | bradycardia [1] | effect on circulating lymphocytes (circulating lymphocytes)
> 10 | Cc1c(-c2noc(-c3ccc(OC(C)C)c(Cl)c3)n2)ccc2c1CCNC2CCCC(=O)O (stereo not drawn) [Example 5, 4-[6-(5-{3-Chloro-4-[(1-methylethyl)oxy]phenyl}-1,2,4-oxadiazol-3-yl)-5-methyl-1,2,3,4-tetrahydro-1-isoquinolinyl]butanoic acid trifluoroacetate] |  | 
> 10 | Cc1c(-c2noc(-c3ccc(OC(C)C)c(C#N)c3)n2)ccc2c1CCNC2CC(=O)O (stereo not drawn) [Example 4, [6-(5-{3-Cyano-4-[(1-methylethyl)oxy]phenyl}-1,2,4-oxadiazol-3-yl)-5-methyl-1,2,3,4-tetrahydro-1-isoquinolinyl]acetic acid trifluoroacetate] |  | 
